# Reference: patent publication US10294234B2, “HIV inhibitor compounds” (priority 2017, dated 2019)
# Like-named read-outs stand apart in the source and are kept apart here.
# Tested on: HIV-1 (IIIB) in MT-4 cells
# Test: MT-4 HIV assay
# Assay type: cell-based
# Experimental: Compounds were tested in a high-throughput 384-well assay format for their ability to inhibit the replication of HIV-1 (IIIB) in MT-4 cells. Compounds were serially diluted (1:3) in DMSO on 384-well polypropylene plates and further diluted 200-fold into complete RPMI media (10% FBS, 1% P/S) using the Biotek Micro Flow and Agilent ECHO acoustic dispenser. Each plate contained up to 8 test compounds, with negative (No Drug Control) and 5 uM AZT positive controls. MT-4 cells were pre-infected with 10 uL of either RPMI (mock-infected) or a fresh 1:250 dilution of an HIV-1 (IIIB) concentrated virus stock. Infected and uninfected MT-4 cells were further diluted in complete RPMI media and added to each plate using a Micro Flow dispenser. After 5 days incubation in a humidified and temperature controlled incubator (37° C.), Cell Titer Glo (Promega) was added to the assay plates to quantify the amount of luciferase.
# [1] = Human immunodeficiency virus 1, MT4, 120 h, HIV-1 (IIIB), MT-4 cells, 5 days, Cell Titer Glo, read-out: EC50
Compound,EC50 [1],further results
"COC(=O)N[C@H](C(=O)N[C@@H](Cc1ccc(-c2cnc(N3CC4CCC(C3)N4C3COC3)nc2)cc1)[C@@H](O)CN(Cc1c(F)cc(-c2cn(C(F)F)cn2)cc1F)NC(=O)[C@@H](NC(=O)OC)C(C)(C)C(F)(F)F)C(C)(C)C(F)(F)F [Example 189, Methyl ((5S,8S,9S,14S)-11-(4-(1-(difluoromethyl)-1H-imidazol-4-yl)-2,6-difluorobenzyl)-16,16,16-trifluoro-9-hydroxy-15,15-dimethyl-8-(4-(2-(8-(oxetan-3-yl)-3,8-diazabicyclo[3.2.1]octan-3-yl)pyrimidin-5-yl)benzyl)-3,6,13-trioxo-5-(1,1,1-trifluoro-2-methylpropan-2-yl)-2-oxa-4,7,11,12-tetraazahexadecan-14-yl)carbamate]",5.47 nM,
"COC(=O)N[C@H](C(=O)N[C@@H](Cc1ccc(C#Cc2ccc(N3CC4CC(C3)N4C3COC3)nc2)cc1)[C@@H](O)CN(Cc1c(F)cc(-c2ccc(F)cn2)cc1F)NC(=O)[C@@H](NC(=O)OC)C(C)(C)C(F)(F)F)C(C)(C)C(F)(F)F [Example 139, Methyl ((5S,10S,11S,14S)-8-(2,6-difluoro-4-(5-fluoropyridin-2-yl)benzyl)-16,16,16-trifluoro-10-hydroxy-15,15-dimethyl-11-(4-((6-(6-(oxetan-3-yl)-3,6-diazabicyclo[3.1.1]heptan-3-yl)pyridin-3-yl)ethynyl)benzyl)-3,6,13-trioxo-5-(1,1,1-trifluoro-2-methylpropan-2-yl)-2-oxa-4,7,8,12-tetraazahexadecan-14-yl)carbamateate]",,"EC50 (HIV-1 (IIIB), MT-4 cells, 5 days, Cell Titer Glo, read-out: EC50): 3.92 nM"
"COC(=O)N[C@H](C(=O)N[C@@H](Cc1ccc(C#Cc2ccc(N3CCN(C4CCOCC4)CC3)nc2)cc1)[C@@H](O)CN(Cc1c(F)cc(-c2ccn(C(F)F)n2)cc1F)NC(=O)[C@@H](NC(=O)OC)C(C)(C)C(F)(F)F)C(C)(C)C(F)(F)F [Example 104, Methyl ((5S,8S,9S,14S)-11-(4-(1-(difluoromethyl)-1H-pyrazol-3-yl)-2,6-difluorobenzyl)-16,16,16-trifluoro-9-hydroxy-15,15-dimethyl-3,6,13-trioxo-8-(4-((6-(4-(tetrahydro-2H-pyran-4-yl)piperazin-1-yl)pyridin-3-yl)ethynyl)benzyl)-5-(1,1,1-trifluoro-2-methylpropan-2-yl)-2-oxa-4,7,11,12-tetraazahexadecan-14-yl)carbamate]",4.97 nM,
"COC(=O)N[C@H](C(=O)N[C@@H](Cc1ccc(C#Cc2ccc(N3CC4CCC(C3)N4C(C)C)nc2)cc1)[C@@H](O)CN(Cc1c(F)cc(-c2ccccn2)cc1F)NC(=O)[C@@H](NC(=O)OC)C(C)(C)C(F)(F)F)C(C)(C)C(F)(F)F [Example 240, methyl ((5S,8S,9S,14S)-11-(2,6-difluoro-4-(pyridin-2-yl)benzyl)-16,16,16-trifluoro-9-hydroxy-8-(4-((6-(8-isopropyl-3,8-diazabicyclo[3.2.1]octan-3-yl)pyridin-3-yl)ethynyl)benzyl)-15,15-dimethyl-3,6,13-trioxo-5-(1,1,1-trifluoro-2-methylpropan-2-yl)-2-oxa-4,7,11,12-tetraazahexadecan-14-yl)carbamate]",5.62 nM,
"COC(=O)N[C@H](C(=O)NN(Cc1c(F)cc(-c2cn(C(F)F)cn2)cc1F)C[C@H](O)[C@H](Cc1ccc(-c2cnc(N3CC4CCC(C3)N4C3COC3)nc2)cc1)NC(=O)[C@@H](NC(=O)OC)C(C)(C)C(F)(F)F)C(C)(C)C [Example 190, methyl ((5S,8S,9S,14S)-11-(4-(1-(difluoromethyl)-1H-imidazol-4-yl)-2,6-difluorobenzyl)-9-hydroxy-15,15-dimethyl-8-(4-(2-(8-(oxetan-3-yl)-3,8-diazabicyclo[3.2.1]octan-3-yl)pyrimidin-5-yl)benzyl)-3,6,13-trioxo-5-(1,1,1-trifluoro-2-methylpropan-2-yl)-2-oxa-4,7,11,12-tetraazahexadecan-14-yl)carbamate]",7.06 nM,
"COC(=O)N[C@H](C(=O)N[C@@H](Cc1ccc(C#Cc2ccc(N3CC4CCC(C3)N4C(=O)[C@@H]3CCCO3)nc2)cc1)[C@@H](O)CN(Cc1c(F)cc(-c2cnc(F)c(F)c2)cc1F)NC(=O)[C@@H](NC(=O)OC)C(C)(C)C)C(C)(C)C [Example 64, Methyl ((5S,8S,9S,14S)-5-(tert-butyl)-11-(4-(5,6-difluoropyridin-3-yl)-2,6-difluorobenzyl)-9-hydroxy-15,15-dimethyl-3,6,13-trioxo-8-(4-((6-(8-((S)-tetrahydrofuran-2-carbonyl)-3,8-diazabicyclo[3.2.1]octan-3-yl)pyridin-3-yl)ethynyl)benzyl)-2-oxa-4,7,11,12-tetraazahexadecan-14-yl)carbamate]",5.4 nM,
"COC(=O)N[C@H](C(=O)N[C@@H](Cc1ccc(C#Cc2ccc(N3CC4CCC(C3)N4C3COC3)nc2)cc1)[C@@H](O)CN(Cc1c(F)cc(C2COC2)cc1F)NC(=O)[C@@H](NC(=O)OC)C(C)(C)C(F)(F)F)C(C)(C)C(F)(F)F [Example 83, Methyl ((5S,8S,9S,14S)-11-(2,6-difluoro-4-(oxetan-3-yl)benzyl)-16,16,16-trifluoro-9-hydroxy-15,15-dimethyl-8-(4-((6-(8-(oxetan-3-yl)-3,8-diazabicyclo[3.2.1]octan-3-yl)pyridin-3-yl)ethynyl)benzyl)-3,6,13-trioxo-5-(1,1,1-trifluoro-2-methylpropan-2-yl)-2-oxa-4,7,11,12-tetraazahexadecan-14-yl)carbamate]",17.2 nM,
"COC(=O)N[C@H](C(=O)NN(Cc1c(F)cc(-c2ncccn2)cc1F)C[C@H](O)[C@H](Cc1ccc(C#Cc2ccc(N3CC4CCC(C3)N4C3COC3)nc2)cc1)NC(=O)[C@@H](NC(=O)OC)C(C)(C)C(F)(F)F)C(C)(C)C [Example 96, Methyl ((5S,8S,9S,14S)-11-(2,6-difluoro-4-(pyrimidin-2-yl)benzyl)-9-hydroxy-15,15-dimethyl-8-(4-((6-(8-(oxetan-3-yl)-3,8-diazabicyclo[3.2.1]octan-3-yl)pyridin-3-yl)ethynyl)benzyl)-3,6,13-trioxo-5-(1,1,1-trifluoro-2-methylpropan-2-yl)-2-oxa-4,7,11,12-tetraazahexadecan-14-yl)carbamate]",2.33 nM,
"COC(=O)N[C@H](C(=O)N[C@@H](Cc1ccc(C#Cc2ccc(N3CC4CCC(C3)N4C(=O)[C@@H]3CCCO3)nc2)cc1)[C@@H](O)CN(Cc1c(F)cc(-c2ccccn2)cc1F)NC(=O)[C@@H](NC(=O)OC)C(C)(C)C)C(C)(C)C [Example 225, Methyl ((5S,8S,9S,14S)-5-(tert-butyl)-11-(2,6-difluoro-4-(pyridin-2-yl)benzyl)-9-hydroxy-15,15-dimethyl-3,6,13-trioxo-8-(4-((6-(8-((S)-tetrahydrofuran-2-carbonyl)-3,8-diazabicyclo[3.2.1]octan-3-yl)pyridin-3-yl)ethynyl)benzyl)-2-oxa-4,7,11,12-tetraazahexadecan-14-yl)carbamate]",4.26 nM,
"COC(=O)N[C@H](C(=O)N[C@@H](Cc1ccc(C#Cc2cnc(N3C[C@H]4C[C@@H]3CN4C3COC3)nc2)cc1)[C@@H](O)CN(Cc1c(F)cc(-c2ncccn2)cc1F)NC(=O)[C@@H](NC(=O)OC)C(C)(C)C(F)(F)F)C(C)(C)C(F)(F)F [Example 24, Methyl ((5S,8S,9S,14S)-11-(2,6-difluoro-4-(pyrimidin-2-yl)benzyl)-16,16,16-trifluoro-9-hydroxy-15,15-dimethyl-8-(4-((2-((1R,4R)-5-(oxetan-3-yl)-2,5-diazabicyclo[2.2.1]heptan-2-yl)pyrimidin-5-yl)ethynyl)benzyl)-3,6,13-trioxo-5-(1,1,1-trifluoro-2-methylpropan-2-yl)-2-oxa-4,7,11,12-tetraazahexadecan-14-yl)carbamate]",,"EC50 (Human immunodeficiency virus 1, MT4, 120 h): 3.82 nM"
"COC(=O)N[C@H](C(=O)N[C@@H](Cc1ccc(C#Cc2ccc(N3CC4CCC(C3)N4C(=O)[C@@H]3CCCO3)nc2)cc1)[C@@H](O)CN(Cc1c(F)cc(-c2ccn(C)n2)cc1F)NC(=O)[C@@H](NC(=O)OC)C(C)(C)C)C(C)(C)C [Example 227, Methyl ((5S,8S,9S,14S)-5-(tert-butyl)-11-(2,6-difluoro-4-(1-methyl-1H-pyrazol-3-yl)benzyl)-9-hydroxy-15,15-dimethyl-3,6,13-trioxo-8-(4-((6-(8-((S)-tetrahydrofuran-2-carbonyl)-3,8-diazabicyclo[3.2.1]octan-3-yl)pyridin-3-yl)ethynyl)benzyl)-2-oxa-4,7,11,12-tetraazahexadecan-14-yl)carbamate]",2.9 nM,
"COC(=O)N[C@H](C(=O)N[C@@H](Cc1ccc(C#Cc2ccc(N3CC4CCC(C3)N4C3COC3)nc2)cc1)[C@@H](O)CN(Cc1ccc(-c2cnn(C(F)F)c2)cc1F)NC(=O)[C@@H](NC(=O)OC)C(C)(C)C(F)(F)F)C(C)(C)C(F)(F)F [Example 157, Methyl ((5S,8S,9S,14S)-11-(4-(1-(difluoromethyl)-1H-pyrazol-4-yl)-2-fluorobenzyl)-16,16,16-trifluoro-9-hydroxy-15,15-dimethyl-8-(4-((6-(8-(oxetan-3-yl)-3,8-diazabicyclo[3.2.1]octan-3-yl)pyridin-3-yl)ethynyl)benzyl)-3,6,13-trioxo-5-(1,1,1-trifluoro-2-methylpropan-2-yl)-2-oxa-4,7,11,12-tetraazahexadecan-14-yl)carbamate]",4.53 nM,
